Experimental data reported in patent publication US11826399B2, “Chlorotoxin agents and uses thereof” (Eisai Inc., priority 2017, dated 2023).
Several values for one entry are separate records, joined by “and”; a condition that tells them apart may be missing. Identical values can stand only once.

Test: Plasma and tissue distribution of Cryptophycin Payload and Cryptophycin Metabolite 1 after Cryptophycin Payload alone or with CTX in PC-3 xenograft nude mice (LC-MS/MS)
Type: in vivo, mouse
Method: For the present experiment, materials, methods, drugs and model were as described in Example 21. […] Following intravenous administration, whole blood samples were collected at predetermined time points via cardiac puncture (n=3 mice per time point). Blood samples were centrifuged to obtain plasma and subsequently stored at […] or lower pending analysis. Additionally, at each time point, kidney, liver, small intestine, brain, heart, and tumor were harvested by removing entire specimen from surrounding tissues (only a portion of liver and small intestine were removed). After removal, tissues were rinsed with normal saline solution (contents of small intestine were emptied) and blotted dry with clean adsorptive tissue. Once dried, the specimens were weighed and stored at −20° C. or lower pending analysis. […] Pharmacokinetic (PK) parameters were calculated. Mean plasma and tissue concentrations were used to calculate mean PK parameters. Skin and skeletal muscle which were not assessed due to difficulty of homogenization.
Vehicle for single dose group was 10% ethanol, 5% Tween 80, 85% saline. Vehicle for combination treatment was 5% ethanol, 2.5% Tween 80, 92.5% saline.

[1] = Brain, Payload 0.4 mg/kg + CTX 16 mg/kg IV
[2] = Brain, Payload 0.4 mg/kg IV alone
[3] = Heart, Payload 0.4 mg/kg + CTX 16 mg/kg IV
[4] = Heart, Payload 0.4 mg/kg IV alone
[5] = Kidney, Payload 0.4 mg/kg + CTX 16 mg/kg IV
[6] = Kidney, Payload 0.4 mg/kg IV alone
[7] = Liver, Payload 0.4 mg/kg + CTX 16 mg/kg IV
[8] = Liver, Payload 0.4 mg/kg IV alone
[9] = Payload 0.4 mg/kg + CTX 16 mg/kg IV, 0.083 h
[10] = Payload 0.4 mg/kg + CTX 16 mg/kg IV, 0.5 h
[11] = Payload 0.4 mg/kg + CTX 16 mg/kg IV, 1 h
[12] = Payload 0.4 mg/kg + CTX 16 mg/kg IV, 2 h
[13] = Payload 0.4 mg/kg + CTX 16 mg/kg IV, 6 h
[14] = Payload 0.4 mg/kg + CTX 16 mg/kg IV, 24 h
[15] = Payload 0.4 mg/kg IV alone, 0.083 h
[16] = Payload 0.4 mg/kg IV alone, 0.5 h
[17] = Payload 0.4 mg/kg IV alone, 1 h
[18] = Payload 0.4 mg/kg IV alone, 2 h
[19] = Payload 0.4 mg/kg IV alone, 6 h
[20] = Payload 0.4 mg/kg IV alone, 24 h
[21] = Plasma, Payload 0.4 mg/kg + CTX 16 mg/kg IV
[22] = Plasma, Payload 0.4 mg/kg IV alone
[23] = Small Intestine, Payload 0.4 mg/kg + CTX 16 mg/kg IV
[24] = Small Intestine, Payload 0.4 mg/kg IV alone
[25] = Tumor, Payload 0.4 mg/kg + CTX 16 mg/kg IV
[26] = Tumor, Payload 0.4 mg/kg IV alone

## COc1ccc(CC2NC(=O)C=CCC(C(C)C3OC3c3ccc(CN4CCN(CCC(C)(C)SC)CC4)cc3)OC(=O)C(CC(C)C)NC(=O)C(C)(C)CNC2=O)cc1Cl (stereo not drawn) [Cryptophycin Metabolite 1]
[1]
  AUC(0-t) of Cryptophycin Metabolite 1: 5.38 ng·h/g
  tmax of Cryptophycin Metabolite 1: 120 min
[2]
  AUC(0-t) of Cryptophycin Metabolite 1: 4.42 ng·h/g
  tmax of Cryptophycin Metabolite 1: 4.8 min
[3]
  AUC(0-inf) of Cryptophycin Metabolite 1: 620 ng·h/g
  AUC(0-t) of Cryptophycin Metabolite 1: 616 ng·h/g
  t1/2 of Cryptophycin Metabolite 1: 3.17 h
  tmax of Cryptophycin Metabolite 1: 4.8 min
[4]
  AUC(0-inf) of Cryptophycin Metabolite 1: 396 ng·h/g
  AUC(0-t) of Cryptophycin Metabolite 1: 394 ng·h/g
  t1/2 of Cryptophycin Metabolite 1: 3.06 h
  tmax of Cryptophycin Metabolite 1: 4.8 min
[5]
  AUC(0-t) of Cryptophycin Metabolite 1: 2720 ng·h/g
  tmax of Cryptophycin Metabolite 1: 120 min
[6]
  AUC(0-inf) of Cryptophycin Metabolite 1: 1750 ng·h/g
  AUC(0-t) of Cryptophycin Metabolite 1: 1720 ng·h/g
  t1/2 of Cryptophycin Metabolite 1: 3.99 h
  tmax of Cryptophycin Metabolite 1: 30 min
[7]
  AUC(0-inf) of Cryptophycin Metabolite 1: 2930 ng·h/g
  AUC(0-t) of Cryptophycin Metabolite 1: 2900 ng·h/g
  t1/2 of Cryptophycin Metabolite 1: 4.04 h
  tmax of Cryptophycin Metabolite 1: 4.8 min
[8]
  AUC(0-inf) of Cryptophycin Metabolite 1: 1870 ng·h/g
  AUC(0-t) of Cryptophycin Metabolite 1: 1820 ng·h/g
  t1/2 of Cryptophycin Metabolite 1: 4.77 h
  tmax of Cryptophycin Metabolite 1: 4.8 min
[9]
  Concentration of Cryptophycin Metabolite 1, Brain, Mean: 0.622 ng/g
  Concentration of Cryptophycin Metabolite 1, Heart, Mean: 107 ng/g
  Concentration of Cryptophycin Metabolite 1, Kidney, Mean: 115 ng/g
  Concentration of Cryptophycin Metabolite 1, Liver, Mean: 1540 ng/g
  Concentration of Cryptophycin Metabolite 1, Plasma, Mean: 10.8 ng/mL
  Concentration of Cryptophycin Metabolite 1, Small Intestine, Mean: 10.4 ng/g
  Concentration of Cryptophycin Metabolite 1, Tumor, Mean: 2.61 ng/g
[10]
  Concentration of Cryptophycin Metabolite 1, Brain, Mean: 0.641 ng/g
  Concentration of Cryptophycin Metabolite 1, Heart, Mean: 94.9 ng/g
  Concentration of Cryptophycin Metabolite 1, Kidney, Mean: 252 ng/g
  Concentration of Cryptophycin Metabolite 1, Liver, Mean: 1000 ng/g
  Concentration of Cryptophycin Metabolite 1, Plasma, Mean: 8.10 ng/mL
  Concentration of Cryptophycin Metabolite 1, Small Intestine, Mean: 18.5 ng/g
  Concentration of Cryptophycin Metabolite 1, Tumor, Mean: 2.69 ng/g
[11]
  Concentration of Cryptophycin Metabolite 1, Brain, Mean: 1.07 ng/g
  Concentration of Cryptophycin Metabolite 1, Heart, Mean: 77.1 ng/g
  Concentration of Cryptophycin Metabolite 1, Kidney, Mean: 285 ng/g
  Concentration of Cryptophycin Metabolite 1, Liver, Mean: 1370 ng/g
  Concentration of Cryptophycin Metabolite 1, Plasma, Mean: 12.4 ng/mL
  Concentration of Cryptophycin Metabolite 1, Small Intestine, Mean: 26.9 ng/g
  Concentration of Cryptophycin Metabolite 1, Tumor, Mean: 3.90 ng/g
[12]
  Concentration of Cryptophycin Metabolite 1, Brain, Mean: 1.09 ng/g
  Concentration of Cryptophycin Metabolite 1, Heart, Mean: 87.9 ng/g
  Concentration of Cryptophycin Metabolite 1, Kidney, Mean: 370 ng/g
  Concentration of Cryptophycin Metabolite 1, Liver, Mean: 335 ng/g
  Concentration of Cryptophycin Metabolite 1, Plasma, Mean: 5.12 ng/mL
  Concentration of Cryptophycin Metabolite 1, Small Intestine, Mean: 21.8 ng/g
  Concentration of Cryptophycin Metabolite 1, Tumor, Mean: 9.66 ng/g
[13]
  Concentration of Cryptophycin Metabolite 1, Brain, Mean: 0.725 ng/g
  Concentration of Cryptophycin Metabolite 1, Heart, Mean: 43.7 ng/g
  Concentration of Cryptophycin Metabolite 1, Kidney, Mean: 191 ng/g
  Concentration of Cryptophycin Metabolite 1, Liver, Mean: 53.6 ng/g
  Concentration of Cryptophycin Metabolite 1, Plasma, Mean: 2.15 ng/mL
  Concentration of Cryptophycin Metabolite 1, Small Intestine, Mean: 14.8 ng/g
  Concentration of Cryptophycin Metabolite 1, Tumor, Mean: 12.2 ng/g
[14]
  Concentration of Cryptophycin Metabolite 1, Brain, Mean: BLQ
  Concentration of Cryptophycin Metabolite 1, Heart, Mean: 0.763 ng/g
  Concentration of Cryptophycin Metabolite 1, Kidney, Mean: 9.65 ng/g
  Concentration of Cryptophycin Metabolite 1, Liver, Mean: 5.15 ng/g
  Concentration of Cryptophycin Metabolite 1, Plasma, Mean: 0.384 ng/mL
  Concentration of Cryptophycin Metabolite 1, Small Intestine, Mean: 4.02 ng/g
  Concentration of Cryptophycin Metabolite 1, Tumor, Mean: 10.8 ng/g
[15]
  Concentration of Cryptophycin Metabolite 1, Brain, Mean: 1.46 ng/g
  Concentration of Cryptophycin Metabolite 1, Heart, Mean: 87.1 ng/g
  Concentration of Cryptophycin Metabolite 1, Kidney, Mean: 225 ng/g
  Concentration of Cryptophycin Metabolite 1, Liver, Mean: 2710 ng/g
  Concentration of Cryptophycin Metabolite 1, Plasma, Mean: 23.6 ng/mL
  Concentration of Cryptophycin Metabolite 1, Small Intestine, Mean: 22.2 ng/g
  Concentration of Cryptophycin Metabolite 1, Tumor, Mean: 2.36 ng/g
[16]
  Concentration of Cryptophycin Metabolite 1, Brain, Mean: 0.895 ng/g
  Concentration of Cryptophycin Metabolite 1, Heart, Mean: 80.2 ng/g
  Concentration of Cryptophycin Metabolite 1, Kidney, Mean: 361 ng/g
  Concentration of Cryptophycin Metabolite 1, Liver, Mean: 499 ng/g
  Concentration of Cryptophycin Metabolite 1, Plasma, Mean: 8.37 ng/mL
  Concentration of Cryptophycin Metabolite 1, Small Intestine, Mean: 29.7 ng/g
  Concentration of Cryptophycin Metabolite 1, Tumor, Mean: 3.27 ng/g
[17]
  Concentration of Cryptophycin Metabolite 1, Brain, Mean: 0.983 ng/g
  Concentration of Cryptophycin Metabolite 1, Heart, Mean: 70.3 ng/g
  Concentration of Cryptophycin Metabolite 1, Kidney, Mean: 294 ng/g
  Concentration of Cryptophycin Metabolite 1, Liver, Mean: 310 ng/g
  Concentration of Cryptophycin Metabolite 1, Plasma, Mean: 6.46 ng/mL
  Concentration of Cryptophycin Metabolite 1, Small Intestine, Mean: 24.3 ng/g
  Concentration of Cryptophycin Metabolite 1, Tumor, Mean: 3.41 ng/g
[18]
  Concentration of Cryptophycin Metabolite 1, Brain, Mean: 0.887 ng/g
  Concentration of Cryptophycin Metabolite 1, Heart, Mean: 52.8 ng/g
  Concentration of Cryptophycin Metabolite 1, Kidney, Mean: 249 ng/g
  Concentration of Cryptophycin Metabolite 1, Liver, Mean: 194 ng/g
  Concentration of Cryptophycin Metabolite 1, Plasma, Mean: 4.32 ng/mL
  Concentration of Cryptophycin Metabolite 1, Small Intestine, Mean: 23.1 ng/g
  Concentration of Cryptophycin Metabolite 1, Tumor, Mean: 4.01 ng/g
[19]
  Concentration of Cryptophycin Metabolite 1, Brain, Mean: 0.412 ng/g
  Concentration of Cryptophycin Metabolite 1, Heart, Mean: 25.4 ng/g
  Concentration of Cryptophycin Metabolite 1, Kidney, Mean: 91.2 ng/g
  Concentration of Cryptophycin Metabolite 1, Liver, Mean: 37.2 ng/g
  Concentration of Cryptophycin Metabolite 1, Plasma, Mean: 1.86 ng/mL
  Concentration of Cryptophycin Metabolite 1, Small Intestine, Mean: 26.1 ng/g
  Concentration of Cryptophycin Metabolite 1, Tumor, Mean: 5.33 ng/g
[20]
  Concentration of Cryptophycin Metabolite 1, Brain, Mean: BLQ
  Concentration of Cryptophycin Metabolite 1, Heart, Mean: 0.387 ng/g
  Concentration of Cryptophycin Metabolite 1, Kidney, Mean: 4.88 ng/g
  Concentration of Cryptophycin Metabolite 1, Liver, Mean: 7.89 ng/g
  Concentration of Cryptophycin Metabolite 1, Plasma, Mean: 0.141 ng/mL
  Concentration of Cryptophycin Metabolite 1, Small Intestine, Mean: 1.50 ng/g
  Concentration of Cryptophycin Metabolite 1, Tumor, Mean: 4.91 ng/g
[21]
  AUC(0-inf) of Cryptophycin Metabolite 1: 53.2 ng·h/mL
  AUC(0-t) of Cryptophycin Metabolite 1: 49.9 ng·h/mL
  Cmax of Cryptophycin Metabolite 1: 12.4 ng/mL
  t1/2 of Cryptophycin Metabolite 1: 6.24 h
  tmax of Cryptophycin Metabolite 1: 60 min
[22]
  AUC(0-inf) of Cryptophycin Metabolite 1: 40.7 ng·h/mL
  AUC(0-t) of Cryptophycin Metabolite 1: 39.8 ng·h/mL
  Cmax of Cryptophycin Metabolite 1: 23.6 ng/mL
  t1/2 of Cryptophycin Metabolite 1: 4.57 h
  tmax of Cryptophycin Metabolite 1: 4.98 min and 4.8 min
[23]
  AUC(0-inf) of Cryptophycin Metabolite 1: 316 ng·h/g
  AUC(0-t) of Cryptophycin Metabolite 1: 263 ng·h/g
  t1/2 of Cryptophycin Metabolite 1: 9.18 h
  tmax of Cryptophycin Metabolite 1: 60 min
[24]
  AUC(0-inf) of Cryptophycin Metabolite 1: 314 ng·h/g
  AUC(0-t) of Cryptophycin Metabolite 1: 302 ng·h/g
  t1/2 of Cryptophycin Metabolite 1: 5.15 h
  tmax of Cryptophycin Metabolite 1: 30 min
[25]
  AUC(0-t) of Cryptophycin Metabolite 1: 259 ng·h/g
  tmax of Cryptophycin Metabolite 1: 360 min
[26]
  AUC(0-t) of Cryptophycin Metabolite 1: 117 ng·h/g
  tmax of Cryptophycin Metabolite 1: 360 min
